# According to patent US20240269139A1, “COMPOUNDS FOR TARGETED PROTEIN DEGRADATION OF KINASES” (DANA-FARBER CANCER INSTITUTE, INC., priority 2020, published 2024):
# Like-named read-outs stand apart in the source and are kept apart here.
# Assays:
# Assay type in all cases: cell-based
# [1] = biological target: protein kinases (human kinome) (Homo sapiens, UniProt Q2M2I8); conditions: experiment wp016
# [2] = biological target: protein kinases (human kinome) (Homo sapiens, UniProt Q00537); conditions: experiment wp016
# Chain of protein kinases (human kinome) (Homo sapiens, UniProt Q00537) (Q00537 whole entry): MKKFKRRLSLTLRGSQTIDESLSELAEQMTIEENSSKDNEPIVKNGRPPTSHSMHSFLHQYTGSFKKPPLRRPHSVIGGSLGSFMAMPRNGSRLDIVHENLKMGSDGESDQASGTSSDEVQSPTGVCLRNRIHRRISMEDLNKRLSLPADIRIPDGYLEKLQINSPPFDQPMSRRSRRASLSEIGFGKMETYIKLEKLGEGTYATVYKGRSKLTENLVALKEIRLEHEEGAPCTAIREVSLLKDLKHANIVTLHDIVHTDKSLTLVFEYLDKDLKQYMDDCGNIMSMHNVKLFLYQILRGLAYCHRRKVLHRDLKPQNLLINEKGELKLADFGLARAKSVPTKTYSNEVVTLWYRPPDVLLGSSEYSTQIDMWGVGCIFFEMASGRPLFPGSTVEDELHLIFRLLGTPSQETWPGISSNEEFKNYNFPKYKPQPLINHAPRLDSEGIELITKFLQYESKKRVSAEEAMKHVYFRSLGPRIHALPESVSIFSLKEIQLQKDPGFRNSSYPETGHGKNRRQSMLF
# [3] = biological target: protein kinases (human kinome) (Homo sapiens, UniProt Q00535)
# Chain of protein kinases (human kinome) (Homo sapiens, UniProt Q00535) (Q00535 whole entry): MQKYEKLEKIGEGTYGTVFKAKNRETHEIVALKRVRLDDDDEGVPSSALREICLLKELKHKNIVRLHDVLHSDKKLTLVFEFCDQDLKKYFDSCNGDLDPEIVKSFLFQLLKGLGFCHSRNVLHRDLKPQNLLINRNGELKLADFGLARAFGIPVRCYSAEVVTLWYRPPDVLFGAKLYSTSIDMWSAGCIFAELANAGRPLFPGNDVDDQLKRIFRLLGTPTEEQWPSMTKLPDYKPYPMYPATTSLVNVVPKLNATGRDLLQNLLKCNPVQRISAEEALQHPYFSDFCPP
# [4] = biological target: protein kinases (human kinome) (Homo sapiens, UniProt P16591)
# [5] = biological target: protein kinases (human kinome) (Homo sapiens, UniProt Q14289)
# [6] = biological target: protein kinases (human kinome) (Homo sapiens, UniProt Q14004); conditions: experiment wp016
# [7] = biological target: protein kinases (human kinome) (Homo sapiens, UniProt P50613)
# [8] = biological target: protein kinases (human kinome) (Homo sapiens, UniProt P30291); conditions: experiment wp016
# Chain of protein kinases (human kinome) (Homo sapiens, UniProt P30291) (P30291 whole entry): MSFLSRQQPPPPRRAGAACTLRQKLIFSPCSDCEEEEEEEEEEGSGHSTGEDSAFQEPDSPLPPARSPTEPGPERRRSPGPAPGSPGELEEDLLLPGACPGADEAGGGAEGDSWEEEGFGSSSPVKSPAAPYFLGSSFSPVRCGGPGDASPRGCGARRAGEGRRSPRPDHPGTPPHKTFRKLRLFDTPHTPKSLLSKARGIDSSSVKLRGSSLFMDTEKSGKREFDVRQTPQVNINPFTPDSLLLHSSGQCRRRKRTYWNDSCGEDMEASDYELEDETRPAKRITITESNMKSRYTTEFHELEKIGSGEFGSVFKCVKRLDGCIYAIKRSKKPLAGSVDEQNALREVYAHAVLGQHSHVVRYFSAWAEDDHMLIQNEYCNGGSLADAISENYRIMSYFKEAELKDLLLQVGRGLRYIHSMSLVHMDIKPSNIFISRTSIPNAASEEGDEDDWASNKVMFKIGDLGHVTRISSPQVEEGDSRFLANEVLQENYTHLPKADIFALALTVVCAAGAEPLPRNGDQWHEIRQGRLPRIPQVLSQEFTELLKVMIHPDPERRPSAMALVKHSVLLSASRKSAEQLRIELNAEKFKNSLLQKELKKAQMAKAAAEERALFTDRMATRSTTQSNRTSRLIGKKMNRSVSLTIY
# [9] = biological target: protein kinases (human kinome) (Homo sapiens, UniProt Q00534)
# [10] = biological target: protein kinases (human kinome) (Homo sapiens, UniProt P11802); conditions: experiment wp016
# Chain of protein kinases (human kinome) (Homo sapiens, UniProt P11802) (P11802 whole entry): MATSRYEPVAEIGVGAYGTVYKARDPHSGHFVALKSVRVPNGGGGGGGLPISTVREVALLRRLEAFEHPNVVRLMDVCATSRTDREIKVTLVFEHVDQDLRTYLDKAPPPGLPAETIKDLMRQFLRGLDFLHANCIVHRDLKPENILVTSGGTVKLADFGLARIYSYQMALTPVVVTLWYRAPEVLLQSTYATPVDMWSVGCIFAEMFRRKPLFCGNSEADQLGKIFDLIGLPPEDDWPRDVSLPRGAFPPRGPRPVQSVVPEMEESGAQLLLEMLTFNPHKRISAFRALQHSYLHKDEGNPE
# [11] = biological target: T1, protein kinases (human kinome) (Homo sapiens, UniProt Q08881); conditions: experiment wp016
# T1 sequence (Q08881 1-620): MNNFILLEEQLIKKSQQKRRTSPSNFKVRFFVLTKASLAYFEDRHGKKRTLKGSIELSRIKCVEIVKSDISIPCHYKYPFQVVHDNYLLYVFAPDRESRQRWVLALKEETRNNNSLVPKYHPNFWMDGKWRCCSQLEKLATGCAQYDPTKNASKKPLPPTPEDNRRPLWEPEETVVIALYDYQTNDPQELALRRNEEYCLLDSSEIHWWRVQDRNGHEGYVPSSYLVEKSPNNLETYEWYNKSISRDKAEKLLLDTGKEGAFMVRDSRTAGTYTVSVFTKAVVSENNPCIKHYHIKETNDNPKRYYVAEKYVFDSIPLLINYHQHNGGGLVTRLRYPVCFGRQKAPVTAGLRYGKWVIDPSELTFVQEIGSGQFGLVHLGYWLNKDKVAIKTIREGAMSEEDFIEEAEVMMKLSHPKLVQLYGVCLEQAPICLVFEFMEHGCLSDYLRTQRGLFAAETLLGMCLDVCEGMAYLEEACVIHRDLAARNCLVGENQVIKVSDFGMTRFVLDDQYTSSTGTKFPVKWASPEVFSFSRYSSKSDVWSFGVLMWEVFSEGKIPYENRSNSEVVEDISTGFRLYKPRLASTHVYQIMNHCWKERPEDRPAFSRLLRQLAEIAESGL
# [12] = biological target: protein kinases (human kinome) (Homo sapiens, UniProt P24941)
# [13] = biological target: protein kinases (human kinome) (Homo sapiens, UniProt O94804); conditions: STK10 (O94804), experiment wp016
# [14] = biological target: protein kinases (human kinome) (Homo sapiens, UniProt Q9NSY1); conditions: BMP2K Q9NSY1; experiment wp016
# [15] = tested on: protein kinases (human kinome)
# [16] = biological target: protein kinases (human kinome) (Homo sapiens, UniProt P51451)
# Chain of protein kinases (human kinome) (Homo sapiens, UniProt P51451) (P51451 whole entry): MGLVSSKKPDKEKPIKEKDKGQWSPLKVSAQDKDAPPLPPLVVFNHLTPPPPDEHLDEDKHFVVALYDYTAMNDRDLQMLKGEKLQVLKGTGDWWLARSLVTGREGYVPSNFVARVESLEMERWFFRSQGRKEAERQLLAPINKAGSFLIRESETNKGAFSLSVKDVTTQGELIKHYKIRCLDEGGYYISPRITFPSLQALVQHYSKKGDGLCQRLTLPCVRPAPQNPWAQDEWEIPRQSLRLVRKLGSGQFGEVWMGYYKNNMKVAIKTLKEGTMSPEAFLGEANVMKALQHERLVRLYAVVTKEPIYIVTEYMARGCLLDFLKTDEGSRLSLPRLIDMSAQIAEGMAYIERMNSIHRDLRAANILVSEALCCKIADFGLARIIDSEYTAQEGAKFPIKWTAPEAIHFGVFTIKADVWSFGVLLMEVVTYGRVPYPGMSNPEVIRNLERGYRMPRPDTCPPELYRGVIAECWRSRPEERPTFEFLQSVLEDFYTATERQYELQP
# [17] = biological target: protein kinases (human kinome) (Homo sapiens, UniProt P53671); conditions: experiment wp016
# [18] = biological target: T2, protein kinases (human kinome) (Homo sapiens, UniProt O14965)
# T2 sequence (O14965 1-403): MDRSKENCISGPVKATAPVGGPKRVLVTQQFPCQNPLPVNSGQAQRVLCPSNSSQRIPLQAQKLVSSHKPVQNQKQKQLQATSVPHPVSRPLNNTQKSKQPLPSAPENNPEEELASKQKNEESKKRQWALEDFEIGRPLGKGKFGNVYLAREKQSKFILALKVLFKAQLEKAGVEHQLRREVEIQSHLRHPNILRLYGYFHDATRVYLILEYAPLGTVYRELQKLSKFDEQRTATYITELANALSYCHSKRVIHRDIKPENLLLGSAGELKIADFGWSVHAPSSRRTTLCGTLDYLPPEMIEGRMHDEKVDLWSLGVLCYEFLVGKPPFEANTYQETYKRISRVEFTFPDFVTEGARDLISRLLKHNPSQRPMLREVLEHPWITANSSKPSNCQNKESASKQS
# [19] = biological target: protein kinases (human kinome) (Homo sapiens, UniProt Q9NYV4); conditions: experiment wp016
# Chain of protein kinases (human kinome) (Homo sapiens, UniProt Q9NYV4) (Q9NYV4 whole entry): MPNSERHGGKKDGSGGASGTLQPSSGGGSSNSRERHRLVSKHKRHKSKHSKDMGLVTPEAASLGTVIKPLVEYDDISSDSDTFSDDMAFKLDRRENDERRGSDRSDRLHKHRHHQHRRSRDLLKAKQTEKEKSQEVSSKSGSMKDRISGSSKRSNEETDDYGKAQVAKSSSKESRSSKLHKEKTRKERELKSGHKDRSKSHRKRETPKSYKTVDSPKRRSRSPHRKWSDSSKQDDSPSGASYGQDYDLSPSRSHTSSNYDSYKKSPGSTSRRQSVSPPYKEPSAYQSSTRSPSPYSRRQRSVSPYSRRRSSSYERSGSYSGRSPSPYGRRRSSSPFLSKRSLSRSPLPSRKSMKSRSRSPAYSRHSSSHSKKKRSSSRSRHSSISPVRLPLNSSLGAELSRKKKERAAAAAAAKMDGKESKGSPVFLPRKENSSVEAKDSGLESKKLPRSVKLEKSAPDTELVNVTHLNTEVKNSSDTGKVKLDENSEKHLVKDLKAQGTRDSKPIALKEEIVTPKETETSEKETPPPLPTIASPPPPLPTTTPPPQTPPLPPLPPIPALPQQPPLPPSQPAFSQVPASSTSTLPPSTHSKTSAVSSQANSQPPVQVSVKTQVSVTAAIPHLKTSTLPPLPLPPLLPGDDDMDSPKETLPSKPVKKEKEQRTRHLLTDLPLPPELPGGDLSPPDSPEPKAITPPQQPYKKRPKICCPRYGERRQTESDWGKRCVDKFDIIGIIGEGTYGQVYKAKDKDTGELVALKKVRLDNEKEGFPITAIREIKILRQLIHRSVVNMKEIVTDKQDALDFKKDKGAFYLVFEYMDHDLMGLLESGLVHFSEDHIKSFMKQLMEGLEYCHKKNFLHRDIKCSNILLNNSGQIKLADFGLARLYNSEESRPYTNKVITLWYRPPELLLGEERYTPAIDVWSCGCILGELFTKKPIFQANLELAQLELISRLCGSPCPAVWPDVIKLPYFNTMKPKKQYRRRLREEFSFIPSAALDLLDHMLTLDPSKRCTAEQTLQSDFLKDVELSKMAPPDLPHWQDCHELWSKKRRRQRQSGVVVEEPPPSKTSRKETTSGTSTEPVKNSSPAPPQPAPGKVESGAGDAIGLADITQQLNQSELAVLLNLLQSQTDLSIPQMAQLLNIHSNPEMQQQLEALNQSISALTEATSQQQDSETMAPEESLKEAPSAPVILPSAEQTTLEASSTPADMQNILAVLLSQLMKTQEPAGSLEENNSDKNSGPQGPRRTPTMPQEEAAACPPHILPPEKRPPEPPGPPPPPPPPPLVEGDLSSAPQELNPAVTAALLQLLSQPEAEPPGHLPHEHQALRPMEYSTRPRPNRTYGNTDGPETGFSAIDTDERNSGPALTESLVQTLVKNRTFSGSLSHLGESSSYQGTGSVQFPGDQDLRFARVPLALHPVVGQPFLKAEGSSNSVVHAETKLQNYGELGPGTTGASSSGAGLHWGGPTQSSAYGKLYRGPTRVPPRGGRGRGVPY
# [20] = biological target: protein kinases (human kinome) (Homo sapiens, UniProt P51812); conditions: RPS6KA3 (P51812), experiment wp146
# Chain of protein kinases (human kinome) (Homo sapiens, UniProt P51812) (P51812 whole entry): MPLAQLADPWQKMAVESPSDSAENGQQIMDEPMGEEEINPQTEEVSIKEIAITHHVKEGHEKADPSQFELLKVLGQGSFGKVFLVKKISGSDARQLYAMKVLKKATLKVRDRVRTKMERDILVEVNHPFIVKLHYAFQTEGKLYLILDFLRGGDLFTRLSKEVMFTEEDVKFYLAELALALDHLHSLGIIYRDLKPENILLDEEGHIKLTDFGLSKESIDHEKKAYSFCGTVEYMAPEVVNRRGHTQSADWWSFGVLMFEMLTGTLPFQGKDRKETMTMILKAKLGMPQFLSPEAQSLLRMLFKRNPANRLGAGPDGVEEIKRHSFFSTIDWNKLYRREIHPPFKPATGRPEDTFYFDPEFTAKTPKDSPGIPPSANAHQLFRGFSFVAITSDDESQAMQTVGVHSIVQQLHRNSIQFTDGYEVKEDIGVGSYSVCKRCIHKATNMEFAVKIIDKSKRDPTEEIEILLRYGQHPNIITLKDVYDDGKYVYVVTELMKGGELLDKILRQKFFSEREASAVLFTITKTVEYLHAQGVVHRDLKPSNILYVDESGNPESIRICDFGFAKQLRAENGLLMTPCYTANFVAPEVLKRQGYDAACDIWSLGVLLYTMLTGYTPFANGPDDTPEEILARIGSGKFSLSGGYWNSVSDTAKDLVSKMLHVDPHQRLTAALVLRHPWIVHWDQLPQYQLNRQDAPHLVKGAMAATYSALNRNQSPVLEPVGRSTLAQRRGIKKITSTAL
# [21] = biological target: protein kinases (human kinome) (Homo sapiens, UniProt Q05397); conditions: PTK2 Q05397; experiment wp146
# [22] = biological target: protein kinases (human kinome) (Homo sapiens, UniProt P06493); conditions: CDK1 P06493; experiment wp146
# [23] = biological target: protein kinases (human kinome) (Homo sapiens, UniProt P45984); conditions: MAPK9 P45984-1; experiment wp146
# [24] = biological target: T3, protein kinases (human kinome) (Homo sapiens, UniProt P33981); conditions: experiment wp146
# T3 sequence (P33981 1-857): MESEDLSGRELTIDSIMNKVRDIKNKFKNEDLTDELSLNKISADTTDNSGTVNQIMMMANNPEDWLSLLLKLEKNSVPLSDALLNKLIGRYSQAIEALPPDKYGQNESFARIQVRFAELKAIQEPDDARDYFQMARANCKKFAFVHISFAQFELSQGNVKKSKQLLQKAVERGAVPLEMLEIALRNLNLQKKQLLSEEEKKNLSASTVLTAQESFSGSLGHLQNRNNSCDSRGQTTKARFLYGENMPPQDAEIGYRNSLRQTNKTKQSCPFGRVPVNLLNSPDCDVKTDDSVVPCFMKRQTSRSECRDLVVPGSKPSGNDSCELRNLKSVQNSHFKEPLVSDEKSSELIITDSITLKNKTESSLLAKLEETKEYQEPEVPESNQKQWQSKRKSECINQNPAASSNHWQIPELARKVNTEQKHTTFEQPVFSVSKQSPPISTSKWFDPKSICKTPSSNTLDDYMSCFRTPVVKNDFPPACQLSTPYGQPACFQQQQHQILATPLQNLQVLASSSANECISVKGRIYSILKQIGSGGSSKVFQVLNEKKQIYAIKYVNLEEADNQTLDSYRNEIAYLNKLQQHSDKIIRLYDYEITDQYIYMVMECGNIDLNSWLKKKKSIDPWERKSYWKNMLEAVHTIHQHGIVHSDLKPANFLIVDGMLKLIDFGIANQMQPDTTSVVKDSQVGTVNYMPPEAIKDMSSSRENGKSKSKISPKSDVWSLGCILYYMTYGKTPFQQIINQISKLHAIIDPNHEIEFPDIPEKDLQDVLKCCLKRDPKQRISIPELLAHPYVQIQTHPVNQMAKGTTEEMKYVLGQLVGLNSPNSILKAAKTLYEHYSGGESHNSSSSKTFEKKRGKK
# [25] = biological target: protein kinases (human kinome) (Homo sapiens, UniProt Q9BYT3); conditions: STK33 (Q9BYT3-1), experiment wp146
# Chain of protein kinases (human kinome) (Homo sapiens, UniProt Q9BYT3) (Q9BYT3 whole entry): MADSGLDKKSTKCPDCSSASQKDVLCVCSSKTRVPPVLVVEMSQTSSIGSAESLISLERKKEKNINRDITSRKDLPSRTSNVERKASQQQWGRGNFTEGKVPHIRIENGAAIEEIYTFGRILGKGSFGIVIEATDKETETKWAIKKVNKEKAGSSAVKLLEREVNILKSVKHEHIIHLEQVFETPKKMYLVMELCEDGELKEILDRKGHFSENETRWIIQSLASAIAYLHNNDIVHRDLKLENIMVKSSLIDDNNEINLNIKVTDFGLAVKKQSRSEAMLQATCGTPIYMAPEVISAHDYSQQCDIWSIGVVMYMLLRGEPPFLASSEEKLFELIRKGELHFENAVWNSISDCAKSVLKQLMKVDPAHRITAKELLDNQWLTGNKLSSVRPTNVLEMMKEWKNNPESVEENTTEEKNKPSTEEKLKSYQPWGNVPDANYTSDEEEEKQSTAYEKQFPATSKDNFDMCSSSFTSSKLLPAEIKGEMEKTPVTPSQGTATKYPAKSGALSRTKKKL
# [26] = experiment wp016, direction of change down
# [27] = experiment wp146, direction of change down
# [28] = AURKB Q96GD4-5, experiment wp146
smiles,measurement,setting,value
CC(C)S(=O)(=O)c1ccccc1Nc1nc(Nc2ccc(N3CCN(CCOCCOCCNC(=O)CNc4ccc5c(c4)C(=O)N(C4CCC(=O)NC4=O)C5=O)CC3)cc2)ncc1Cl (centres unmarked) [LT2.49],logFC AAK1,"[1]; AAK1 (Q2M218-1), down",−1.778
same,logFC AAK1,"[1]; AAK1, accession Q2M218-1, direction of change down",−1.778
same,logFC of CDK17,[2]; Accession Q00537,−0.7544
same,logFC CDK17 (Q00537),[2]; direction of change down,−0.7544
same,logFC of CDK5,"[3]; Accession Q00535, experiment wp016",−0.8608
same,logFC CDK5 (Q00535),[3]; [26],−0.8608
same,logFC of FER (P16591-1),"[4]; Experiment wp016, down",−2.467
same,logFC of FER,"[4]; FER P16591-1, experiment wp016",−2.467
same,logFC,"[5]; PTK2B (Q14289-1) protein abundance, degrader vs DMSO, down",−3.365
same,logFC PTK2B,"[5]; PTK2B, accession Q14289-1, experiment wp016, direction of change down",−3.365
same,logFC CDK13,[6]; Accession Q14004-1,−0.3839
same,logFC CDK13 (Q14004-1),[6],−0.3839
same,logFC,"[7]; CDK7 (P50613) protein abundance, degrader vs DMSO, down",−1.014
same,logFC CDK7,"[7]; CDK7 P50613, experiment wp016",−1.014
same,logFC WEE1 (P30291-1),[8],−1.314
same,logFC CDK6,"[9]; CDK6 (Q00534), direction down, experiment wp016",−0.6531
same,logFC of CDK6 (Q00534),"[9]; Experiment wp016, down",−0.6531
same,logFC CDK4 (P11802),[10],−0.8985
same,logFC ITK (Q08881),[11],−2.212
same,logFC ITK (Q08881),[11]; direction of change down,−2.212
same,logFC CDK2 (P24941-1),[12]; experiment wp016,−0.5177
same,logFC CDK2 (P24941-1),[12]; [26],−0.5177
same,logFC,[13],−0.3336
same,logFC,[13]; direction down,−0.3336
same,logFC,[14],−0.5079
same,logFC BMP2K,[14],−0.5079
same,logFC,"[15]; CDK9 (P50750-2) protein abundance, degrader vs DMSO, down",−0.6469
same,logFC PRKAA1 (Q13131-2),"[15]; Experiment wp016, direction down",−0.3739
same,logFC LCK,"[15]; LCK, accession P06239-3, experiment wp016, direction of change down",−0.6186
same,logFC CDK9 (P50750-2),[15]; experiment wp016,−0.6469
same,logFC PRKAA1 (Q13131-2),[15]; experiment wp016,−0.3739
same,logFC LCK (P06239-3),[15]; [26],−0.6186
same,logFC of BLK,"[16]; BLK P51451, experiment wp016",−1.613
same,logFC of BLK (P51451),"[16]; Experiment wp016, down",−1.613
same,logFC LIMK2,"[17]; LIMK2 (P53671), down",−0.9573
same,logFC of LIMK2,[17]; LIMK2 P53671,−0.9573
same,logFC AURKA (O14965),[18]; experiment wp016,−1.853
same,logFC CDK12,[19]; Accession Q9NYV4-1,−0.868
same,logFC CDK12,[19]; CDK12 (Q9NYV4-1),−0.868
Cc1cc(S(=O)(=O)NCCOCCOCCOCCOCCNc2cccc3c2C(=O)N(C2CCC(=O)NC2=O)C3=O)ccc1Nc1ncc(Br)c(Nc2cccc(F)c2C(N)=O)n1 (centres unmarked) [TMX.02.172],logFC CDK5 (Q00535),[3]; experiment wp146,−2.878
same,logFC CDK5 (Q00535),[3]; [27],−2.878
same,logFC,[20],−0.8349
same,logFC,[20]; direction down,−0.8349
same,logFC,[21],−0.7381
same,logFC PTK2,[21],−0.7381
same,logFC,[22],−1.302
same,logFC CDK1,[22],−1.302
same,logFC,[23],−1.091
same,logFC MAPK9,[23],−1.091
same,logFC TTK,[24]; Accession P33981,−0.7542
same,logFC TTK (P33981),[24],−0.7542
same,logFC CDK2 (P24941-1),[12]; experiment wp146,−2.199
same,logFC CDK2 (P24941-1),[12]; [27],−2.199
same,logFC,[15]; [28],−0.4856
same,logFC AURKB,[15]; [28],−0.4856
same,logFC MAPK8 (P45983-4),"[15]; Experiment wp146, direction down",−0.5524
same,logFC MAPK8,"[15]; MAPK8 P45983-4, experiment wp146",−0.5524
same,logFC RPS6KA1,"[15]; RPS6KA1 (Q15418-2), experiment wp146",−1.351
same,logFC RPS6KA1 (Q15418-2),[15]; experiment wp146,−1.351
same,logFC,[25],−1.295
same,logFC,[25]; direction down,−1.295
same,logFC AURKA (O14965),[18]; experiment wp146,−2.402
